Laboratory results as given in patent US20240158392A1 (Janssen Biotech, Inc., priority 2021, published 2024).

Columns and labels:
SIK2 [1] = molecular target: T1, SIK2 (Homo sapiens, UniProt Q9H0K1); assay: SIK2 Enzymatic Assay High Version 2 (High ATP); assay type: biochemical
Procedure, shortened: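 At room temperature, enzyme (6 nM, 2× final) was preincubated with compound for 30 min, then 6 mM ATP and 400 μM HDAC5tide (both 2× final) were added for 2 h. ADP formed was measured by ADP-Glo Max (2 h reagent, 1 h detection) using luminescence.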

SIK2 [2] = molecular target: T1, SIK2; assay: SIK2 Enzymatic Assay Version 1 (ADP Glo); assay type: biochemical; details: enzyme 0.6 nM, 160 μM ATP and 140 μM HDAC5tide (each 2× final concentration); 30 minutes pre-incubation, 4 hours; ADPGlo luminescence; read-out: SIK2 ADP Glo IC50 (μM) (Test Example 1)
Procedure, shortened: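 Kinase activity read as ADP production by ADP-Glo luminescence, all steps at room temperature. Compound and SIK2 (0.6 nM, a 2× concentration) were preincubated 30 min; ATP-only wells lacking peptide were the negative control; depletion 40 min, detection ≥30 min.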

T1 sequence (Q9H0K1 whole entry, species assumed): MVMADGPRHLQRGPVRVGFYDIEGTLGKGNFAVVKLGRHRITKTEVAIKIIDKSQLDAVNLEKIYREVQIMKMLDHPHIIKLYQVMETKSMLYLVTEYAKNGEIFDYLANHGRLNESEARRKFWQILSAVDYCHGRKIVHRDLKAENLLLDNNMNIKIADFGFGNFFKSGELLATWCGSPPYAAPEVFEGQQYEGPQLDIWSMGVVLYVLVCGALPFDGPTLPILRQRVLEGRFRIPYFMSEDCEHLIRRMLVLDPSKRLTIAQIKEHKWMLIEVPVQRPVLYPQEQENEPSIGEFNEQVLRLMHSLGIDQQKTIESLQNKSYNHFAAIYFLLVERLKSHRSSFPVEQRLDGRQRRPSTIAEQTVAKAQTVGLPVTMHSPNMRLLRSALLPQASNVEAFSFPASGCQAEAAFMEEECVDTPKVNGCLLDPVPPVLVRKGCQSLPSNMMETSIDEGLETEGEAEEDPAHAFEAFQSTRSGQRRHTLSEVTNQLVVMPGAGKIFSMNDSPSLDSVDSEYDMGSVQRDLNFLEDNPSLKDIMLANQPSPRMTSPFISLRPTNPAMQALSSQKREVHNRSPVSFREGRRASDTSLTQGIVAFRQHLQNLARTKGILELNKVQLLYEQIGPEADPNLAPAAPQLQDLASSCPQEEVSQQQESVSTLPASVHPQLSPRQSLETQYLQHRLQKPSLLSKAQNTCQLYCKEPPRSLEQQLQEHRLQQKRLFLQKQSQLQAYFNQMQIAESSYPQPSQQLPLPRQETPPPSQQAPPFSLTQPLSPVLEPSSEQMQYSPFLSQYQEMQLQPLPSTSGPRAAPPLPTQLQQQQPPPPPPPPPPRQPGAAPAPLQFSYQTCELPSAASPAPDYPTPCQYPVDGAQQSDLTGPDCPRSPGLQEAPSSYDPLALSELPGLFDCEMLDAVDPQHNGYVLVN

IC50 (SIK2 [1])	IC50 (SIK2 [2])	Structure (SMILES)
26 nM	0.00124 µM	N#Cc1cc(-c2ccn3nc(NC(=O)C4CC4)cc3c2)c(OCC2(N)CCC2)cn1 [Example 44, N-[5-[5-[(1-aminocyclobutyl)methoxy]-2-cyano-4-pyridyl]pyrazolo[1,5-a]pyridin-2-yl]cyclopropanecarboxamide]
11.2 nM	0.00149 µM	N#Cc1cc(-c2ccn3nc(NC(=O)C4CC4)cc3c2)c(O[C@H]2CCNC2)cn1 [Example 6, (S)—N-(5-(2-cyano-5-(pyrrolidin-3-yloxy)pyridin-4-yl)pyrazolo[1,5-a]pyridin-2-yl)cyclopropanecarboxamide]
114 nM	0.00609 µM	N#Cc1cc(-c2ccn3nc(NC(=O)C4CC4)cc3c2)c(OC[C@H](O)C(F)(F)F)cn1 [Example 97, N-[5-[2-cyano-5-[(2S)-3,3,3-trifluoro-2-hydroxy-propoxy]-4-pyridyl]pyrazolo[1,5-a]pyridin-2-yl]cyclopropanecarboxamide]
25.2 nM	0.000957 µM	C[C@@](O)(COc1cnc(C#N)cc1-c1ccn2nc(NC(=O)C3CC3)cc2c1)C(F)(F)F (single isomer, unassigned) [Example 49, (*R)—N-(5-(2-Cyano-5-(3,3,3-trifluoro-2-hydroxy-2-methylpropoxy)pyridin-4-yl)pyrazolo[1,5-a]pyridin-2-yl)cyclopropanecarboxamide]
2.85 nM	0.00055 µM	N#Cc1cc(-c2ccn3nc(NC(=O)C4CC4)cc3c2)c(O[C@@H]2CCN(CC(F)(F)F)C2)cn1 [Example 110, (R)—N-[5-[2-cyano-5-[(3R)-1-(2,2,2-trifluoroethyl)pyrrolidin-3-yl]oxy-4-pyridyl]pyrazolo[1,5-a]pyridin-2-yl]cyclopropanecarboxamide]
4870 nM	0.204 µM	CN1CCC(Oc2cnc(C#N)cc2-c2ccn3nc(NC(=O)C4CC4)cc3c2)(C(F)(F)F)CC1 [Example 10, N-[5-[2-cyano-5-[[1-methyl-4-(trifluoromethyl)-4-piperidyl]oxy]-4-pyridyl]pyrazolo[1,5-a]pyridin-2-yl]cyclopropanecarboxamide]

More lines, now with the values behind:

Structure (SMILES)	IC50 (SIK2 [1])	IC50 (SIK2 [2])
N#Cc1ccc(OC[C@@H]2CCNC2)c(-c2ccn3nc(NC(=O)C4CC4)cc3c2)c1 [Example 476, N-[5-[5-cyano-2-[[(3R)-pyrrolidin-3-yl]methoxy]phenyl]pyrazolo[1,5-a]pyridin-2-yl]cyclopropanecarboxamide]	55.6 nM	0.00386 µM
COCCN1CC[C@H](Oc2cnc(C#N)cc2-c2ccn3nc(NC(=O)C4CC4)cc3c2)C1 [Example 108, (S)—N-[5-[2-cyano-5-[(3S)-1-(2-methoxyethyl)pyrrolidin-3-yl]oxy-4-pyridyl]pyrazolo[1,5-a]pyridin-2-yl]cyclopropanecarboxamide]	204 nM	0.00527 µM
Cc1cc(-c2ccn3nc(Nc4cccnc4)cc3c2)c(O[C@H]2CC[C@H](O)CC2)cn1 [Example 290, (1r,4r)-4-((6-methyl-4-(2-(pyridin-3-ylamino)pyrazolo[1,5-a]pyridin-5-yl)pyridin-3-yl)oxy)cyclohexan-1-ol]	83.1 nM	0.00439 µM
Cc1cc(-c2ccn3nc(Nc4cnn(C)c4)cc3c2)c(OC2CN(C)C2)cn1 [Example 568, 5-[2-methyl-5-(1-methylazetidin-3-yl)oxy-4-pyridyl]-N-(1-methylpyrazol-4-yl)pyrazolo[1,5-a]pyridin-2-amine]	93.3 nM	0.00471 µM
N#Cc1cc(-c2ccn3nc(NC(=O)C4CC4)cc3c2)c(OC[C@H]2C[C@@H](Nc3ccccn3)C2)cn1 [Example 176, cis-N-[5-[2-cyano-5-[[3-(2-pyridylamino)cyclobutyl]methoxy]-4-pyridyl]pyrazolo[1,5-a]pyridin-2-yl]cyclopropanecarboxamide]	55.5 nM	0.00196 µM
CN1CC[C@@H](COc2ccc(C#N)cc2-c2ccn3nc(NC(=O)C4CC4)cc3c2)C1 [Example 100, N-[5-[5-cyano-2-[[(3R)-1-methylpyrrolidin-3-yl]methoxy]phenyl]pyrazolo[1,5-a]pyridin-2-yl]cyclopropanecarboxamide]	105 nM	0.00573 µM
Cc1cc(-c2ccn3nc(NC(=O)C4CC4)cc3c2)c(O[C@H]2CC[C@H](O)C2)cn1 (stereo in doubt) [Example 183, trans-N-(5-(5-(((1*S,3*S)-3-hydroxycyclopentyl)oxy)-2-methylpyridin-4-yl)pyrazolo[1,5-a]pyridin-2-yl)cyclopropanecarboxamide]	34.9 nM	0.00201 µM
N#Cc1cc(-c2ccn3nc(NC(=O)C4CC4)cc3c2)c(OCc2cccnc2)cn1 [Example 47, N-[5-[2-Cyano-5-(3-pyridylmethoxy)-4-pyridyl]pyrazolo[1,5-a]pyridin-2-yl]cyclopropanecarboxamide]	154 nM	0.0135 µM
CN1CC[C@@H](COc2cnc(C#N)cc2-c2ccn3nc(Nc4ccccn4)cc3c2)C1 [Example 107, 5-[[(3R)-1-methylpyrrolidin-3-yl]methoxy]-4-[2-(2-pyridylamino)pyrazolo[1,5-a]pyridin-5-yl]pyridine-2-carbonitrile]	40.1 nM	0.0022 µM
N#Cc1cc(-c2ccn3nc(NC(=O)C4CC4)cc3c2)c(O[C@H]2CCN(Cc3ccccn3)C2)cn1 [Example 109, (S)—N-[5-[2-cyano-5-[(3S)-1-(2-pyridylmethyl)pyrrolidin-3-yl]oxy-4-pyridyl]pyrazolo[1,5-a]pyridin-2-yl]cyclopropanecarboxamide]	116 nM	0.00422 µM
N#Cc1cc(-c2ccn3nc(NC(=O)C4CC4)cc3c2)c(OC[C@H]2CC[C@H](O)CC2)cn1 [Example 53, trans-N-(5-(2-Cyano-5-(((1r,4r)-4-hydroxycyclohexyl)methoxy)pyridin-4-yl)pyrazolo[1,5-a]pyridin-2-yl)cyclopropanecarboxamide]	13.5 nM	0.000641 µM
N#Cc1cc(-c2ccn3nc(NC(=O)C4CC4)cc3c2)c(O[C@H]2C[C@@H](CO)C2)cn1 [Example 69, N-[5-[2-cyano-5-[3-(hydroxymethyl)cyclobutoxy]-4-pyridyl]pyrazolo[1,5-a]pyridin-2-yl]cyclopropanecarboxamide]	38.3 nM	0.0028 µM
C[C@@H](Oc1ccc(C#N)cc1-c1ccn2nc(NC(=O)C3CC3)cc2c1)[C@@H]1CNCCO1 (single isomer, unassigned) [Example 477, (2*R, 1*S)—N-[5-[5-cyano-2-(1-morpholin-2-ylethoxy)phenyl]pyrazolo[1,5-a]pyridin-2-yl]cyclopropanecarboxamide]	50.7 nM	0.00442 µM
CN1C[C@H]2C[C@@H]1C[C@H]2Oc1cnc(C#N)cc1-c1ccn2nc(NC(=O)C3CC3)cc2c1 [Example 13, N-[5-[2-cyano-5-[[(1R,4R,5R)-2-methyl-2-azabicyclo[2.2.1]heptan-5-yl]oxy]-4-pyridyl]pyrazolo[1,5-a]pyridin-2-yl]cyclopropanecarboxamide]	305 nM	0.0208 µM
N#Cc1cc(-c2ccn3nc(NC(=O)C4CC4)cc3c2)c(OC[C@H]2CC[C@H](N)CC2)cn1 [Example 586, N-(5-(5-(((1r,4r)-4-aminocyclohexyl)methoxy)-2-cyanopyridin-4-yl)pyrazolo[1,5-a]pyridin-2-yl)cyclopropanecarboxamide]	8.63 nM	0.00095 µM
